How the values were obtained:
[1] = molecular target: TBPS binding, rat brain cortical membranes in the presence of 5 μM GABA; test: 35S-TBPS displacement (steroid inhibition of TBPS binding); conditions: read-out: 35S-TBPS Radioligand Displacement (IC50)
Experimental: TBPS binding assays using rat brain cortical membranes in the presence of 5 μM GABA has been described (Gee et al, J. Pharmacol. Exp. Then 1987, 241, 346-353; Hawkinson et al, Mol. Pharmacol. 1994, 46, 977-985). Briefly, cortices are rapidly removed following decapitation of carbon dioxide-anesthetized Sprague-Dawley rats (200-250 g). The cortices are homogenized in 10 volumes of ice-cold 0.32 M sucrose using a glass/teflon homogenizer and centrifuged at 1500×g for 10 min at 4° C. The resultant supernatants are centrifuged at 10,000×g for 20 min at 4° C. to obtain the P2 pellets. The P2 pellets are resuspended in 200 mM NaCl/50 mM Na—K phosphate pH 7.4 buffer and centrifuged at 10,000×g for 10 min at 4° C. This washing procedure is repeated twice and the pellets are resuspended in 10 volumes of buffer. Aliquots (100 μL) of the membrane suspensions are incubated with 3 nM [^35S]-TBPS and 5 μL, aliquots of test drug dissolved in dimethyl sulfoxide (DMSO) (final 0.5%) in the presence of 5 μM GABA. The incubation is brought to a final volume of 1.0 mL with buffer. Nonspecific binding is determined in the presence of 2 μM unlabeled TBPS and ranged from 15 to 25%. Following a 90 min incubation at room temp, the assays are terminated by filtration through glass fiber filters (Schleicher and Schuell No. 32) using a cell harvester (Braudel) and rinsed three times with ice-cold buffer. Filter bound radioactivity is measured by liquid scintillation spectrometry. Non-linear curve fitting of the overall data for each drug averaged for each concentration is done using Prism (GraphPad). […] The concentration of test compound producing 50% inhibition (IC50) of specific binding and the maximal extent of inhibition (Imax) are determined for the individual experiments with the same model used for the overall data and then the means±SEMs of the individual experiments are calculated.
Various compounds are or can be screened to determine their potential as modulators of ^35S-TBPS binding in vitro. These assays are or can be performed in accordance with the above discussed procedures.

GABA receptor α1β2γ2 = molecular target: T1, GABA receptor α1β2γ2 (Homo sapiens, UniProt P14867+P47870); test: Patch clamp electrophysiology, Qpatch in Ltk cells; format: cell-based; conditions: 10 μM test article, GABA EC20 = 2 μM, read-out: GABA (α1β2γ2) Qpatch in Ltk, % efficacy at 10 μM
T1 construct: expressed in transfected cells; host or cells: LTK cells, stably transfected
T1 sequence (P14867 28-456): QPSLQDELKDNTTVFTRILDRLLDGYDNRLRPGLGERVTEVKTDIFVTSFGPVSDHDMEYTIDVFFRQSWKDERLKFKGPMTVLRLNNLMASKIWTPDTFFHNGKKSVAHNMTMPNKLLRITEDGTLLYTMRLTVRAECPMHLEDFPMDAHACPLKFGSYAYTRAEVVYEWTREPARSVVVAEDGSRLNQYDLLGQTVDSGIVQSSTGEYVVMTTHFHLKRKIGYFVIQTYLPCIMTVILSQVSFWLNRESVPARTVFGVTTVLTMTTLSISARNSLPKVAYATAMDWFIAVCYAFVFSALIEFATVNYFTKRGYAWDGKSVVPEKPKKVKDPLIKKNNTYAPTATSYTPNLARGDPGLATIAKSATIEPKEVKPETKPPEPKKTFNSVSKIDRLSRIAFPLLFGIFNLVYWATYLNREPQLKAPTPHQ
T1 sequence (P47870 25-512 limits assumed): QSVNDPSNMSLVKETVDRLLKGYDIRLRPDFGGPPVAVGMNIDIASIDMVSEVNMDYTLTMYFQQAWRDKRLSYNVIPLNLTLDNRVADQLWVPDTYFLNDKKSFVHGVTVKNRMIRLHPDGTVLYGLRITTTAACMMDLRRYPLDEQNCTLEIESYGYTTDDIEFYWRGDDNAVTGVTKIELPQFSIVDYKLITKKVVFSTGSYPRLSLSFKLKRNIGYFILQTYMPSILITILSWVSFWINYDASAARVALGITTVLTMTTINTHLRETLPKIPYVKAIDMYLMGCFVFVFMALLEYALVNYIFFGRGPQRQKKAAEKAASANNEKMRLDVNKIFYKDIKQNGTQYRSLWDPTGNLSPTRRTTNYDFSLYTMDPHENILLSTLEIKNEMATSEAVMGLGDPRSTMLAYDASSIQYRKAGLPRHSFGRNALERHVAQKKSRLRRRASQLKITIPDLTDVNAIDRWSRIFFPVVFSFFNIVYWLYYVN
T1 sequence (P18507 40-475 partner): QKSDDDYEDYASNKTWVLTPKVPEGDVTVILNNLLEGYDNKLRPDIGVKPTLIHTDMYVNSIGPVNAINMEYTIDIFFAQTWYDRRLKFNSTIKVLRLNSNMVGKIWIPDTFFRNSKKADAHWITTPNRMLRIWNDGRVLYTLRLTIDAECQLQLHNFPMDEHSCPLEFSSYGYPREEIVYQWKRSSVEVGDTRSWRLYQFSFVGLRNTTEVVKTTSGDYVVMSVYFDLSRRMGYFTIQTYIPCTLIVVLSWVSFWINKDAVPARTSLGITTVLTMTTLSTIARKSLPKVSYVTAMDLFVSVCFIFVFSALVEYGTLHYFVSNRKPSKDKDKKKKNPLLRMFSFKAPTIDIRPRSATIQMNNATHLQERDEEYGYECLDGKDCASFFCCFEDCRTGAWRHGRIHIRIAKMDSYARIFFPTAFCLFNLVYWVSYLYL

male Sprague Dawley rats = test: Loss of righting reflex in rats; format: in vivo, rat; conditions: intravenous bolus 5 mg/kg
Experimental: The plasma pharmacokinetics and a qualitative assessment of sedation were obtained in male Sprague Dawley rats according to the following procedure. Rats were dosed by intravenous bolus dose (60 seconds) via the foot dorsal vein at 5 mg/kg in an appropriate vehicle. In order to assess sedation, rats were gently restrained by hand to a lateral position for dose administration. […] If the animal was unable to return to an upright position, the time was recorded as the onset of loss of righting reflex (LRR). […] Sluggish or incomplete righting twice consecutively within a 30 second interval qualifies as a loss of righting reflex. After onset of LRR, animals were assessed every 5 minutes in the same manner. Recovery of righting reflex is defined as the ability of a rat to right itself completely within 20 seconds of being placed in dorsal recumbency. The duration of LRR is defined as the time interval between LRR and the return of righting reflex.

GABA receptor α4β3δ = molecular target: T2, GABA receptor α4β3δ (Homo sapiens, UniProt P28472+P48169); test: Patch clamp electrophysiology, manual patch in CHO cells; format: cell-based; conditions: 10 μM test article, GABA EC20 = 2 μM, read-out: GABA (α4β3δ) Manual patch in CHO, % efficacy at 10 μM
T2 construct: expressed in transfected cells; host or cells: CHO cells, transiently transfected
T2 sequence (P48169 36-554): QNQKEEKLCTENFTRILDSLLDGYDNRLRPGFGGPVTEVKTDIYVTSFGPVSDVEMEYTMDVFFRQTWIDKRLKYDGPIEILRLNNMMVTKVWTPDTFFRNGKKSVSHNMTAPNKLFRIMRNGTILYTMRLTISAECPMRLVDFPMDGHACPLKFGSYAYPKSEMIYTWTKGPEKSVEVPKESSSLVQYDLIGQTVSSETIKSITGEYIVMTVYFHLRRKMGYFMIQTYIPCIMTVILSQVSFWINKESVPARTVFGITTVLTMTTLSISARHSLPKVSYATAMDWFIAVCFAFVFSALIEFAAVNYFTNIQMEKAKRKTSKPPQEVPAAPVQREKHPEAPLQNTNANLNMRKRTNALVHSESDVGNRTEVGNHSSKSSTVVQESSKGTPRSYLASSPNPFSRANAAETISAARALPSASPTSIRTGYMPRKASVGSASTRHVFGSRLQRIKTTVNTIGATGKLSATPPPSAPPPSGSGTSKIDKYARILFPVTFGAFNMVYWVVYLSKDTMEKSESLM
T2 sequence (P28472 26-473): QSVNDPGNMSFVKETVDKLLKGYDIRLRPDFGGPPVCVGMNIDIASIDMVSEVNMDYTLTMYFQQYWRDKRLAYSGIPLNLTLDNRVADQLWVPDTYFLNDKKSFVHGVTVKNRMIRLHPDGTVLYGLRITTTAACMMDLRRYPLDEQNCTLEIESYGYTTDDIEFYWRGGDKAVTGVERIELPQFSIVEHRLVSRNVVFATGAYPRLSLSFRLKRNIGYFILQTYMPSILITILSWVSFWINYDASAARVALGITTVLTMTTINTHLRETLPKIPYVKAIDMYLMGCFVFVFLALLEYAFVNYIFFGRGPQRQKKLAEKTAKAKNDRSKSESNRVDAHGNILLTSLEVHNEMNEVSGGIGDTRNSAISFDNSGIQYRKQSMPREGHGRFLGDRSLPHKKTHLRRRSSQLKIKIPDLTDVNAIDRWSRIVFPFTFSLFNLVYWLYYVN
T2 sequence (O14764 25-452 partner): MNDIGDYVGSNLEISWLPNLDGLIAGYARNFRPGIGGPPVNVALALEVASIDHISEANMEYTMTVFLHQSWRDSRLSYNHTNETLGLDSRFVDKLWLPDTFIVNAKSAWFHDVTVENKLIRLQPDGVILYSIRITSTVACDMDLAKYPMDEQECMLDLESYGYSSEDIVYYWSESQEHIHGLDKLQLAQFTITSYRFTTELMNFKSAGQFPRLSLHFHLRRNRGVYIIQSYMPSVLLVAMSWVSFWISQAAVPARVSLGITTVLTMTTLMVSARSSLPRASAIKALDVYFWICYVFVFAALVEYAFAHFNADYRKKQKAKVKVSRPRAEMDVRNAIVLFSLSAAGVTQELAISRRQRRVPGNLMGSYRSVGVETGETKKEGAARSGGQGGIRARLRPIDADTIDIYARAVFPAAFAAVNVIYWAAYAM

Row | SMILES | IC50 [1] [nM] | Emax at 10 µM (GABA receptor α1β2γ2) [%] | Duration of LRR (min) (male Sprague Dawley rats) | Emax at 10 µM (GABA receptor α4β3δ) [%]
1 | CCCO[C@H]1C[C@@]2(C)[C@@H](CC[C@@H]3[C@@H]2CC[C@]2(C)[C@H](C#N)CC[C@@H]32)C[C@@H]1O [Compound 18] | > 500 |  |  | 
2 | C[C@@H]1C[C@@]2(C)[C@@H](CC[C@@H]3[C@@H]2CC[C@]2(C)[C@@H](C#N)CC[C@@H]32)C[C@@H]1O [Compound 33] | 10 to 50 | 100 to 500 | A (“A” indicates the duration of LRR to be <10 min) | 
3 | CO[C@@H]1C[C@]2(C)[C@@H](C#N)CC[C@H]2[C@@H]2CC[C@H]3C[C@H](O)CC[C@]3(C)C21 (stereo partly shown) [Compound 34] | 100 to 500 |  |  | 
4 | CO[C@H]1C[C@]2(C)[C@@H](C#N)CC[C@H]2[C@@H]2CC[C@H]3[C@@H](C)[C@H](O)CC[C@]3(C)[C@H]21 [Compound 52] | > 500 |  |  | 
5 | CC[C@H]1[C@H](O)CC[C@]2(C)[C@H]3CC[C@]4(C)[C@@H](C#N)CC[C@H]4[C@@H]3CC[C@@H]12 [Compound 50] | > 500 |  |  | 
6 | CC(C)O[C@H]1C[C@@]2(C)[C@@H](CC[C@H]3[C@@H]4CC[C@H](C#N)[C@@]4(C)CC(=O)[C@@H]32)C[C@@H]1O [Compound 22] | 50 to 100 | 100 to 500 |  | 
7 | C[C@]12C[C@H](OC(F)(F)F)[C@@H](O)C[C@@H]1CC[C@@H]1[C@@H]2CC[C@]2(C)[C@@H](C#N)CC[C@@H]12 [Compound 43] | > 500 |  |  | 
8 | CO[C@H]1C[C@]2(C)[C@@H](C#N)CC[C@H]2[C@@H]2CC[C@H]3C[C@H](O)[C@H](C)C[C@]3(C)[C@H]21 [Compound 45] | 50 to 100 | > 500 | C (“C” indicates the duration of LRR to be >20 minutes) | 
9 | CCO[C@H]1C[C@@]2(C)[C@@H](CC[C@H]3[C@@H]4CC[C@@H](C#N)[C@@]4(C)CC(=O)[C@@H]32)C[C@@H]1O [Compound 20] | > 500 |  |  | 
10 | COCCO[C@H]1C[C@@]2(C)[C@@H](CC[C@H]3[C@@H]4CC[C@H](C#N)[C@@]4(C)CC(=O)[C@@H]32)C[C@@H]1O [Compound 17] | > 500 | 100 to 500 |  | 
11 | CO[C@H]1C[C@]2(C)[C@@H](C#N)CC[C@H]2[C@@H]2CC[C@H]3C[C@H](O)[C@@H](C)C[C@]3(C)[C@H]21 [Compound 51] | 10 to 50 | > 500 | C (“C” indicates the duration of LRR to be >20 minutes) | 
12 | C[C@]12C[C@H](OC3CC3)[C@@H](O)C[C@@H]1CC[C@@H]1[C@@H]2CC[C@]2(C)[C@@H](C#N)CC[C@@H]12 [Compound 42] | > 500 |  |  | 
13 | C[C@H]1[C@H](O)CC[C@@]2(C)[C@H]1CC[C@@H]1[C@@H]2CC[C@]2(C)[C@@H](C#N)CC[C@@H]12 [Compound 49] | 100 to 500 |  |  | 
14 | CC(C)CO[C@H]1C[C@]2(C)C3CC[C@]4(C)[C@@H](C#N)CC[C@H]4[C@@H]3CC[C@H]2C[C@@H]1O (stereo partly shown) [Compound 29] | < 10 | > 500 | C (“C” indicates the duration of LRR to be >20 minutes) | 
15 | CCCO[C@H]1C[C@@]2(C)[C@@H](CC[C@@H]3[C@@H]2[C@@H](O)C[C@]2(C)[C@@H](C#N)CC[C@@H]32)C[C@@H]1O [Compound 26] | 100 to 500 |  | B (“B” indicates the duration of LRR to be 10-20 minutes) | 
16 | CCO[C@H]1C[C@@]2(C)[C@@H](CC[C@@H]3[C@@H]2[C@@H](O)C[C@]2(C)[C@H](C#N)CC[C@@H]32)C[C@@H]1O [Compound 11] | > 500 |  |  | 
17 | C[C@]12CC[C@@H](O)C[C@@H]1CC[C@@H]1[C@@H]2[C@@H](O)C[C@]2(C)[C@@H](C#N)CC[C@@H]12 [Compound 27] | > 500 |  |  | 
18 | CO[C@H]1C[C@]2(C)[C@H](C#N)CC[C@H]2[C@@H]2CC[C@H]3C[C@H](O)[C@H](C)C[C@]3(C)[C@H]21 [Compound 46] | 100 to 500 | 10 to 100 |  | 
19 | CC(C)O[C@H]1C[C@@]2(C)[C@@H](CC[C@H]3[C@@H]4CC[C@H](C#N)[C@@]4(C)CC(=O)[C@@H]32)C[C@@H]1O [Compound 23] | 100 to 500 |  | B (“B” indicates the duration of LRR to be 10-20 minutes) | 

Row | SMILES | IC50 [1] [nM] | Emax at 10 µM (GABA receptor α1β2γ2) [%] | Duration of LRR (min) (male Sprague Dawley rats) | Emax at 10 µM (GABA receptor α4β3δ) [%]
20 | COCCO[C@H]1C[C@@]2(C)[C@@H](CC[C@@H]3[C@@H]2[C@@H](O)C[C@]2(C)[C@@H](C#N)CC[C@@H]32)C[C@@H]1O [Compound 24] | > 500 |  |  | 
21 | CO[C@@H]1C[C@@]2(C)[C@@H](CC[C@@H]3[C@@H]2CC[C@]2(C)[C@@H](C#N)CC[C@@H]32)C[C@@H]1O [Compound 44] | > 500 |  |  | 
22 | C[C@H]1C[C@@]2(C)[C@@H](CC[C@H]3[C@@H]4CC[C@H](C#N)[C@@]4(C)CC(=O)[C@@H]32)C[C@@H]1O [Compound 53] | 100 to 500 |  |  | 
23 | CO[C@H]1C[C@]2(C)[C@@H](C#N)CC[C@H]2[C@@H]2CC[C@@H]3C[C@H](O)CC[C@]3(C)[C@H]21 [Compound 28] | 100 to 500 | > 500 | A (“A” indicates the duration of LRR to be <10 min) | 
24 | CO[C@H]1C[C@]2(C)[C@H](C#N)CC[C@H]2[C@@H]2CC[C@H]3C[C@H](O)[C@@H](OC)C[C@]3(C)[C@H]21 [Compound 13] | > 500 |  |  | 
25 | C[C@]12CC[C@@H](O)C[C@H]1CC[C@@H]1[C@@H]2[C@@H](O)C[C@]2(C)[C@H](C#N)CC[C@@H]12 [Compound 15] | > 500 |  |  | 
26 | C[C@]12CC[C@@H](O)C[C@H]1CC[C@@H]1[C@@H]2[C@@H](O)C[C@]2(C)[C@@H](C#N)CC[C@@H]12 [Compound 9] | > 500 | 100 to 500 |  | 10 to 100
27 | CC[C@H]1C[C@@]2(C)[C@@H](CC[C@@H]3[C@@H]2CC[C@]2(C)[C@@H](C#N)CC[C@@H]32)C[C@@H]1O [Compound 41] | < 10 | > 500 | C (“C” indicates the duration of LRR to be >20 minutes) | 
28 | C[C@H]1C[C@@]2(C)[C@@H](CC[C@@H]3[C@@H]2[C@@H](O)C[C@]2(C)[C@@H](C#N)CC[C@@H]32)C[C@@H]1O [Compound 54] | 100 to 500 |  |  | 
29 | C[C@H]1C[C@@]2(C)[C@@H](CC[C@@H]3[C@@H]2CC[C@]2(C)[C@@H](C#N)CC[C@@H]32)C[C@@H]1O [Compound 40] | 10 to 50 | > 500 | B (“B” indicates the duration of LRR to be 10-20 minutes) | 
30 | CO[C@H]1C[C@]2(C)[C@@H](C#N)CC[C@H]2[C@@H]2CC[C@H]3C[C@H](O)[C@@H](OC)C[C@]3(C)[C@H]21 [Compound 12] | 100 to 500 | > 500 | A (“A” indicates the duration of LRR to be <10 min) | 
31 | C[C@]12C[C@H](OC3CC3)[C@@H](O)C[C@@H]1CC[C@@H]1[C@@H]2CC[C@]2(C)[C@H](C#N)CC[C@@H]12 [Compound 57] | > 500 |  |  | 
32 | CCCO[C@H]1C[C@@]2(C)[C@@H](CC[C@H]3[C@@H]4CC[C@H](C#N)[C@@]4(C)CC(=O)[C@@H]32)C[C@@H]1O [Compound 21] | 10 to 50 | > 500 | C (“C” indicates the duration of LRR to be >20 minutes) | 
33 | C[C@]12C[C@H](OCCO)[C@@H](O)C[C@@H]1CC[C@@H]1[C@@H]2CC[C@]2(C)[C@@H](C#N)CC[C@@H]12 [Compound 7] | > 500 |  |  | 
34 | C[C@]12C[C@@H](O)C3[C@@H](CC[C@H]4C[C@H](O)CC[C@]34C)[C@@H]1CC[C@@H]2C#N (stereo partly shown) [Compound 30] | > 500 |  |  | 
35 | CCO[C@H]1C[C@@]2(C)[C@@H](CC[C@@H]3[C@@H]2[C@@H](O)C[C@]2(C)[C@@H](C#N)CC[C@@H]32)C[C@@H]1O [Compound 10] | > 500 | > 500 | A (“A” indicates the duration of LRR to be <10 min) | 
36 | C[C@H]1[C@H](O)CC[C@@]2(C)[C@H]1CC[C@H]1[C@@H]3CC[C@H](C#N)[C@@]3(C)CC(=O)[C@@H]12 [Compound 55] | > 500 |  |  | 
37 | C[C@H]1[C@H](O)CC[C@]2(C)[C@@H]3[C@@H](CC[C@@H]12)[C@@H]1CC[C@H](C#N)[C@@]1(C)C[C@@H]3O [Compound 56] | > 500 |  |  | 
